Measurements reported in ChEMBL document CHEMBL1201862, “PubChem BioAssay data set” (2004).
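1) Cells in 96-well plates. 2) Compound, 48 h, 5 concentrations. 3) Linear interpolation between surrounding doses. 4) Unreached endpoint = highest concentration. Abbreviation: GI50, concentration required for 50% inhibition of growth.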 Active and inactive are the calls of the source. Cut-off read from the data, not from the text of the source: active = GI50 up to about 1.1 µM and inactive = higher.

Columns and labels:
Experiment in all cases: DTP human tumour cell line panel, 48 h
786-0 = tested on: 786-0
A498 = tested on: A498
A549 = tested on: A549
ACHN = tested on: ACHN
BT-549 = tested on: BT-549
CAKI-1 = tested on: CAKI-1
CCRF-CEM = tested on: CCRF-CEM
COLO 205 = tested on: COLO 205
DU-145 = tested on: DU-145
EKVX = tested on: EKVX
HCC 2998 = tested on: HCC 2998
HCT-116 = tested on: HCT-116
HCT-15 = tested on: HCT-15
HL-60 = tested on: HL-60
HOP-62 = tested on: HOP-62
HOP-92 = tested on: HOP-92
HT-29 = tested on: HT-29
Hs-578T = tested on: Hs-578T
IGROV-1 = tested on: IGROV-1
K562 = tested on: K562
KM12 = tested on: KM12
LOX IMVI = tested on: LOX IMVI
M14 = tested on: M14
MCF7 = tested on: MCF7
MDA-MB-231 = tested on: MDA-MB-231
MDA-MB-435 = tested on: MDA-MB-435
MDA-N = tested on: MDA-N
MOLT-4 = tested on: MOLT-4
Malme-3M = tested on: Malme-3M
NCI-H226 = tested on: NCI-H226
NCI-H23 = tested on: NCI-H23
NCI-H460 = tested on: NCI-H460
NCI-H522 = tested on: NCI-H522
NCI/ADR-RES = tested on: NCI/ADR-RES
OVCAR-3 = tested on: OVCAR-3
OVCAR-4 = tested on: OVCAR-4
OVCAR-5 = tested on: OVCAR-5
OVCAR-8 = tested on: OVCAR-8
PC-3 = tested on: PC-3
RPMI-8226 = tested on: RPMI-8226
RXF 393 = tested on: RXF 393
SF-268 = tested on: SF-268
SF-295 = tested on: SF-295
SF-539 = tested on: SF-539
SK-MEL-28 = tested on: SK-MEL-28
SK-MEL-2 = tested on: SK-MEL-2
SK-MEL-5 = tested on: SK-MEL-5
SK-OV-3 = tested on: SK-OV-3
SN12C = tested on: SN12C
SNB-19 = tested on: SNB-19
SNB-75 = tested on: SNB-75
SR = tested on: SR
SW-620 = tested on: SW-620
T47D = tested on: T47D
TK-10 = tested on: TK-10
U-251 = tested on: U-251
UACC-257 = tested on: UACC-257
UACC-62 = tested on: UACC-62
UO-31 = tested on: UO-31

In the case of `Cn1c(=O)[nH]c2nccnc2c1=O`, the GI50 (786-0) is reported as > 10 µM (inactive), the GI50 (A498) is reported as > 10 µM (inactive) and the GI50 (A549) is reported as > 10 µM (inactive). For the same compound, the GI50 (ACHN) was > 10 µM (inactive), the GI50 (BT-549) was > 10 µM (inactive) and the GI50 (CAKI-1) was > 10 µM (inactive). For the same compound, the GI50 (CCRF-CEM) was > 10 µM (inactive), the GI50 (COLO 205) was > 10 µM (inactive) and the GI50 (DU-145) was > 10 µM (inactive). For the same compound, the GI50 (EKVX) was > 10 µM (inactive), the GI50 (HCC 2998) was > 10 µM (inactive) and the GI50 (HCT-116) was > 10 µM (inactive). For the same compound, the GI50 (HCT-15) was greater than 10 µM, the GI50 (HL-60) was > 10 µM (inactive) and the GI50 (HOP-62) was > 10 µM (inactive). The GI50 (HOP-92) was > 10 µM (inactive), the GI50 (HT-29) was > 10 µM (inactive) and the GI50 (Hs-578T) was > 10 µM (inactive). The GI50 (IGROV-1) was > 10 µM (inactive), the GI50 (K562) was > 10 µM (inactive) and the GI50 (KM12) was > 10 µM (inactive). For the same compound, the GI50 (LOX IMVI) was > 10 µM (inactive), the GI50 (M14) was > 10 µM (inactive) and the GI50 (MCF7) was > 10 µM (inactive). The GI50 (MDA-MB-231) was > 10 µM (inactive), the GI50 (MDA-MB-435) was > 10 µM (inactive) and the GI50 (MDA-N) was > 10 µM (inactive). The GI50 (MOLT-4) was > 10 µM (inactive), the GI50 (Malme-3M) was > 10 µM (inactive) and the GI50 (NCI-H226) was > 10 µM (inactive). For the same compound, the GI50 (NCI-H23) was > 10 µM (inactive), the GI50 (NCI-H460) was > 10 µM (inactive) and the GI50 (NCI-H522) was > 10 µM (inactive). The GI50 (NCI/ADR-RES) was > 10 µM (inactive), the GI50 (OVCAR-3) was > 10 µM (inactive) and the GI50 (OVCAR-4) was > 10 µM (inactive). The GI50 (OVCAR-5) was > 10 µM (inactive), the GI50 (OVCAR-8) was > 10 µM (inactive) and the GI50 (PC-3) was > 10 µM (inactive). The GI50 (RPMI-8226) was > 10 µM (inactive), the GI50 (RXF 393) was > 10 µM (inactive) and the GI50 (SF-268) was > 10 µM (inactive). For the same compound, the GI50 (SF-295) was > 10 µM (inactive), the GI50 (SF-539) was > 10 µM (inactive) and the GI50 (SK-MEL-28) was > 10 µM (inactive). For the same compound, the GI50 (SK-MEL-2) was > 10 µM (inactive), the GI50 (SK-MEL-5) was > 10 µM (inactive) and the GI50 (SK-OV-3) was > 10 µM (inactive). The GI50 (SN12C) was > 10 µM (inactive), the GI50 (SNB-19) was > 10 µM (inactive) and the GI50 (SNB-75) was > 10 µM (inactive). The GI50 (SR) was > 10 µM (inactive), the GI50 (SW-620) was > 10 µM (inactive) and the GI50 (T47D) was > 10 µM (inactive). The GI50 (TK-10) was > 10 µM (inactive), the GI50 (U-251) was > 10 µM (inactive) and the GI50 (UACC-257) was > 10 µM (inactive). For the same compound, the GI50 (UACC-62) was > 10 µM (inactive) and the GI50 (UO-31) was > 10 µM (inactive).

In the case of `COC(=O)[C@@H](COC(=O)/C=C/c1ccc(OC(C)=O)c(OC(C)=O)c1)NC(=O)/C=C/c1ccc(OC(C)=O)c(OC(C)=O)c1`, the GI50 (786-0) is reported as 14.8 µM (inactive), the GI50 (A498) is reported as 80.9 µM (inactive) and the GI50 (A549) is reported as 42.8 µM (inactive). The GI50 (ACHN) was 32.2 µM (inactive), the GI50 (BT-549) was 60.8 µM (inactive) and the GI50 (CAKI-1) was 15.3 µM (inactive). The GI50 (CCRF-CEM) was 9.98 µM (inactive), the GI50 (COLO 205) was 15.7 µM (inactive) and the GI50 (DU-145) was 22.8 µM (inactive). For the same compound, the GI50 (EKVX) was 16.3 µM (inactive), the GI50 (HCC 2998) was 21.8 µM (inactive) and the GI50 (HCT-116) was 16 µM (inactive). The GI50 (HCT-15) was 19.7 µM, the GI50 (HL-60) was 18.7 µM (inactive) and the GI50 (HOP-62) was 25.6 µM (inactive). The GI50 (HOP-92) was 32.7 µM (inactive), the GI50 (HT-29) was 22.4 µM (inactive) and the GI50 (Hs-578T) was 25.2 µM (inactive). For the same compound, the GI50 (IGROV-1) was 32.4 µM (inactive), the GI50 (K562) was > 100 µM (inactive) and the GI50 (KM12) was 25.1 µM (inactive). The GI50 (LOX IMVI) was 11.3 µM (inactive), the GI50 (M14) was 14.6 µM (inactive) and the GI50 (MCF7) was 33.9 µM (inactive). The GI50 (MDA-MB-231) was 22.6 µM (inactive), the GI50 (MDA-MB-435) was 29.5 µM (inactive) and the GI50 (MDA-N) was 18.3 µM (inactive). The GI50 (MOLT-4) was 38.5 µM (inactive), the GI50 (Malme-3M) was 6.52 µM (inactive) and the GI50 (NCI-H226) was 35.6 µM (inactive). The GI50 (NCI-H23) was 28.1 µM (inactive), the GI50 (NCI-H460) was 18.5 µM (inactive) and the GI50 (NCI-H522) was 13.2 µM (inactive). The GI50 (NCI/ADR-RES) was 51.5 µM (inactive), the GI50 (OVCAR-3) was 20.5 µM (inactive) and the GI50 (OVCAR-4) was 16.4 µM (inactive). The GI50 (OVCAR-5) was 45.8 µM (inactive), the GI50 (OVCAR-8) was 22.5 µM (inactive) and the GI50 (PC-3) was 23.1 µM (inactive). For the same compound, the GI50 (RPMI-8226) was 38.2 µM (inactive), the GI50 (RXF 393) was 35.1 µM (inactive) and the GI50 (SF-268) was 29.9 µM (inactive). For the same compound, the GI50 (SF-539) was 19 µM (inactive), the GI50 (SK-MEL-28) was 70.8 µM (inactive) and the GI50 (SK-MEL-2) was 21.7 µM (inactive). The GI50 (SK-MEL-5) was 13.4 µM (inactive), the GI50 (SK-OV-3) was 55.5 µM (inactive) and the GI50 (SN12C) was 18 µM (inactive). The GI50 (SNB-19) was 44.5 µM (inactive), the GI50 (SNB-75) was 20.9 µM (inactive) and the GI50 (SR) was 8.49 µM (inactive). The GI50 (SW-620) was 33.3 µM (inactive), the GI50 (T47D) was 11.1 µM (inactive) and the GI50 (U-251) was 33.7 µM (inactive). The GI50 (UACC-257) was 51.8 µM (inactive) and the GI50 (UACC-62) was 19.6 µM (inactive).
